# Laboratory results: publication PMC11170969, “Photoaffinity probe‐based antimalarial target identification of artemisinin in the intraerythrocytic developmental cycle of Plasmodium falciparum” (iMeta, 2024)
# Tests used:
# [1] = target: T1, PfTIM (Plasmodium falciparum, UniProt Q7KQM0); test: enzyme activity inhibition; format: biochemical; settings: binding also shown by DARTS; activity assay conditions not stated in main text
# T1 construct: gene TPI; recombinant, pET-28a(+), E. coli BL21(DE3), Ni-NTA
# [2] = target: T2, PfGAPDH (Plasmodium falciparum, UniProt Q8IKK7); test: enzyme activity inhibition; format: biochemical; settings: binding also shown by DARTS; activity assay conditions not stated in main text; covalent Glu59 adduct suggested by MS in a separate test with hemin and ascorbate
# T2 construct: gene PF3D7_1462800; recombinant, pET-28a(+), E. coli BL21(DE3), Ni-NTA
# [3] = target: T3, PfOAT (Plasmodium falciparum, UniProt Q6LFH8); test: OAT activity assay kit, absorbance at […] nm; format: biochemical; settings: without heme activation (also tested with heme activation); 1 h preincubation; methods name the inhibitor ART, 0-80 μM
# T3 construct: gene OAT; recombinant, pET-28a(+), E. coli BL21(DE3), Ni-NTA
# T3 sequence (Q6LFH8 1-414): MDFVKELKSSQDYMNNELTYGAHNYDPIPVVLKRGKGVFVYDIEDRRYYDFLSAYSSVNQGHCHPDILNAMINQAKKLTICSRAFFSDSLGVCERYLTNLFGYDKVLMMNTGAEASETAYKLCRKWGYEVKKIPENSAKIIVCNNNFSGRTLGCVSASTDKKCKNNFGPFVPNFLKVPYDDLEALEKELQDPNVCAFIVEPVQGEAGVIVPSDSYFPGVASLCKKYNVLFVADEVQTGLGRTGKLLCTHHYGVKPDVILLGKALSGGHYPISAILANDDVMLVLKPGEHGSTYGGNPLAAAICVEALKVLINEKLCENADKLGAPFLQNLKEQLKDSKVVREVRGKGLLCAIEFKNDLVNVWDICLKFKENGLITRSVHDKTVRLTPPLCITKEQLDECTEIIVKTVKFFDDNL
# [4] = target: T4, PfLDH (Plasmodium falciparum, UniProt Q76NM3); test: enzyme activity inhibition; format: biochemical; settings: binding also shown by DARTS; activity assay conditions not stated in main text
# T4 construct: gene PF3D7_1324900; recombinant, pET-28a(+), E. coli BL21(DE3), Ni-NTA
# [5] = target: T5, PfEGF1‐α (Plasmodium falciparum, UniProt Q8I0P6); test: DARTS; competition with APP photolabelling; format: binding; settings: DARTS: 5 μM protein, room temperature, 2 h, pronase; competition: 10 μM ATS
# T5 construct: gene PF3D7_1357000; recombinant, pET-28a(+), E. coli BL21(DE3), Ni-NTA
# T5 sequence (Q8I0P6 1-443): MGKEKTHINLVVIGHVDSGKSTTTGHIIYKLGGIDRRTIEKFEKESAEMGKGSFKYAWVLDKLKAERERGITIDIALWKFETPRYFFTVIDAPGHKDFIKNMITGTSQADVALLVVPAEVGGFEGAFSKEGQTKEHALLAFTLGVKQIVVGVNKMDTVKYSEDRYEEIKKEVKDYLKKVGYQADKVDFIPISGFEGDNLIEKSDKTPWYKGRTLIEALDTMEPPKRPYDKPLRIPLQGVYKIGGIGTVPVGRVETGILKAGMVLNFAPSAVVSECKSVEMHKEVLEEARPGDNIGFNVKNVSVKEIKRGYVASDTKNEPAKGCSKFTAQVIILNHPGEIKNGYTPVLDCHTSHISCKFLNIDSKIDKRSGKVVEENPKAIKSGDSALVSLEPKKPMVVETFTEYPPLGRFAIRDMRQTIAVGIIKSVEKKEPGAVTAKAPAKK
# T1 sequence (Q7KQM0 whole entry): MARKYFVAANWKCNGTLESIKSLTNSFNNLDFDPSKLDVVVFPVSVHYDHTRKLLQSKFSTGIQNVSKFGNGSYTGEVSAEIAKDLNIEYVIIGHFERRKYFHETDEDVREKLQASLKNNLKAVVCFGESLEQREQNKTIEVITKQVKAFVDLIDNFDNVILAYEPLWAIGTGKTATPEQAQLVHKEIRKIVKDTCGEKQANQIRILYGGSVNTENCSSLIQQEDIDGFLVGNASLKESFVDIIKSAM
# T4 sequence (Q76NM3 1-316): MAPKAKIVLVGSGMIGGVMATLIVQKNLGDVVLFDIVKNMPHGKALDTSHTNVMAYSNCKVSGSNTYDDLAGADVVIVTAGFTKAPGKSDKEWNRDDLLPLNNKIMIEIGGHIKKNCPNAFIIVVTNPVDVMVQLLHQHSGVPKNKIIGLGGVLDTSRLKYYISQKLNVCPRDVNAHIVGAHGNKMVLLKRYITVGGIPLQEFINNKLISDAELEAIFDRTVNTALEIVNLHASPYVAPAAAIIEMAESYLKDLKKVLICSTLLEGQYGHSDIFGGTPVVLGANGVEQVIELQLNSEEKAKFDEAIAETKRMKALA
# T2 sequence (Q8IKK7 entry or part of it): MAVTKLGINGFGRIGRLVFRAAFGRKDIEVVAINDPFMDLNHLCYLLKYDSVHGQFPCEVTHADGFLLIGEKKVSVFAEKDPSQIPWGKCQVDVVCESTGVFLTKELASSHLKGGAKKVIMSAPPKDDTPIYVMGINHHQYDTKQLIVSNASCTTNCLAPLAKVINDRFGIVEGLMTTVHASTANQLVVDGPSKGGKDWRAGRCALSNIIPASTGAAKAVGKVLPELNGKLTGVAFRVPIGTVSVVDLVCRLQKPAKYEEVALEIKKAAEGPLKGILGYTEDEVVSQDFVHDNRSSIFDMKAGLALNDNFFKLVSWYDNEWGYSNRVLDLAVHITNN
smiles,measurement,setting,value
"C[C@H]1[C@H](OC(=O)CCC(=O)O)O[C@@H]2O[C@@]3(C)CC[C@H]4[C@H](C)CC[C@@H]1[C@@]24OO3 [ATS, artesunate]",half-maximal inhibitory concentration,[1],the half‐maximal inhibitory concentrations were at low micromolar concentrations
same,half-maximal inhibitory concentration,[2],the half‐maximal inhibitory concentrations were at low micromolar concentrations
same,"OAT activity assay kit, absorbance at 340 nm",[3],ATS can significantly inhibit its enzyme activity in both heme‐activated and nonactivated states
same,half-maximal inhibitory concentration,[4],the half‐maximal inhibitory concentrations were at low micromolar concentrations
same,DARTS; competition with APP photolabelling,[5],the PfEGF1‐α proteins became more resistant to proteolysis after incubation with ATS
